#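 48-hour exposure; five concentrations; linearly interpolated endpoints. TGI: total growth inhibition.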
# Legend:
# Assay in all cases: inhibition of tumour cell growth, NCI panel, 48 h
# HT29 colon = tested on: HT29 colon
# UACC-257 melanoma = tested on: UACC-257 melanoma
# MDA-N = tested on: MDA-N
# A549 NSCLC = tested on: A549 NSCLC
# IGROV1 ovarian = tested on: IGROV1 ovarian
# NCI-H460 lung = tested on: NCI-H460 lung
# MOLT-4 leukemia = tested on: MOLT-4 leukemia
# LOX IMVI melanoma = tested on: LOX IMVI melanoma
# TK-10 renal = tested on: TK-10 renal
# 786-0 renal = tested on: 786-0 renal
# ACHN renal = tested on: ACHN renal
# BT-549 breast = tested on: BT-549 breast
# NCI/ADR-RES ovarian = tested on: NCI/ADR-RES ovarian
# NCI-H226 lung = tested on: NCI-H226 lung
# KM12 colon = tested on: KM12 colon
# HCT-15 colon = tested on: HCT-15 colon
# SF-268 CNS = tested on: SF-268 CNS
# HOP-92 NSCLC = tested on: HOP-92 NSCLC
# CAKI-1 renal = tested on: CAKI-1 renal
# SK-MEL-28 melanoma = tested on: SK-MEL-28 melanoma
# T-47D breast = tested on: T-47D breast
# SR leukemia = tested on: SR leukemia
# SK-OV-3 ovarian = tested on: SK-OV-3 ovarian
# SN12C renal = tested on: SN12C renal
# M14 melanoma = tested on: M14 melanoma
# SK-MEL-5 melanoma = tested on: SK-MEL-5 melanoma
# NCI-H23 lung = tested on: NCI-H23 lung
# MALME-3M melanoma = tested on: MALME-3M melanoma
# SW-620 colon = tested on: SW-620 colon
# SNB-19 CNS = tested on: SNB-19 CNS
# EKVX NSCLC = tested on: EKVX NSCLC
# MDA-MB-231 breast = tested on: MDA-MB-231 breast
# RXF 393 renal = tested on: RXF 393 renal
# OVCAR-8 ovarian = tested on: OVCAR-8 ovarian
# SNB-75 CNS = tested on: SNB-75 CNS
# RPMI-8226 leukemia = tested on: RPMI-8226 leukemia
# MDA-MB-435 = tested on: MDA-MB-435
# HL-60(TB) leukemia = tested on: HL-60(TB) leukemia
# DU-145 prostate = tested on: DU-145 prostate
# OVCAR-4 ovarian = tested on: OVCAR-4 ovarian
# NCI-H522 lung = tested on: NCI-H522 lung
# U251 CNS = tested on: U251 CNS
# SK-MEL-2 melanoma = tested on: SK-MEL-2 melanoma
# UACC-62 melanoma = tested on: UACC-62 melanoma
# HOP-62 NSCLC = tested on: HOP-62 NSCLC
# OVCAR-5 ovarian = tested on: OVCAR-5 ovarian
# COLO 205 colon = tested on: COLO 205 colon
# CCRF-CEM leukemia = tested on: CCRF-CEM leukemia
# PC-3 prostate = tested on: PC-3 prostate
# HS 578T breast = tested on: HS 578T breast
# MCF7 breast = tested on: MCF7 breast
# SF-295 CNS = tested on: SF-295 CNS
# HCC-2998 colon = tested on: HCC-2998 colon
# A498 renal = tested on: A498 renal
# HCT-116 colon = tested on: HCT-116 colon
# UO-31 renal = tested on: UO-31 renal
# K-562 leukemia = tested on: K-562 leukemia
# OVCAR-3 ovarian = tested on: OVCAR-3 ovarian
# SF-539 CNS = tested on: SF-539 CNS
smiles,measurement,setting,value
O=C(c1ccccc1)n1c(Cc2ccccc2)nc2cc(C34CC5CC(CC(C5)C3)C4)ccc21,TGI,HT29 colon,> 100 µM
same,TGI,UACC-257 melanoma,> 100 µM
same,TGI,MDA-N,> 100 µM
same,TGI,A549 NSCLC,> 100 µM
same,TGI,IGROV1 ovarian,> 100 µM
same,TGI,NCI-H460 lung,> 100 µM
same,TGI,MOLT-4 leukemia,> 100 µM
same,TGI,LOX IMVI melanoma,> 100 µM
same,TGI,TK-10 renal,> 100 µM
same,TGI,786-0 renal,> 100 µM
same,TGI,ACHN renal,> 100 µM
same,TGI,BT-549 breast,> 100 µM
same,TGI,NCI/ADR-RES ovarian,> 100 µM
same,TGI,NCI-H226 lung,> 100 µM
same,TGI,KM12 colon,> 100 µM
same,TGI,HCT-15 colon,48.5 µM
same,TGI,SF-268 CNS,> 100 µM
same,TGI,HOP-92 NSCLC,> 100 µM
same,TGI,CAKI-1 renal,> 100 µM
same,TGI,SK-MEL-28 melanoma,> 100 µM
same,TGI,T-47D breast,> 100 µM
same,TGI,SR leukemia,> 100 µM
same,TGI,SK-OV-3 ovarian,> 100 µM
same,TGI,SN12C renal,> 100 µM
same,TGI,M14 melanoma,> 100 µM
same,TGI,SK-MEL-5 melanoma,56.5 µM
same,TGI,NCI-H23 lung,> 100 µM
same,TGI,MALME-3M melanoma,> 100 µM
same,TGI,SW-620 colon,> 100 µM
same,TGI,SNB-19 CNS,> 100 µM
same,TGI,EKVX NSCLC,> 100 µM
same,TGI,MDA-MB-231 breast,> 100 µM
same,TGI,RXF 393 renal,> 100 µM
same,TGI,OVCAR-8 ovarian,> 100 µM
same,TGI,SNB-75 CNS,> 100 µM
same,TGI,RPMI-8226 leukemia,> 100 µM
same,TGI,MDA-MB-435,> 100 µM
same,TGI,HL-60(TB) leukemia,> 100 µM
same,TGI,DU-145 prostate,> 100 µM
same,TGI,OVCAR-4 ovarian,> 100 µM
same,TGI,NCI-H522 lung,> 100 µM
same,TGI,U251 CNS,> 100 µM
same,TGI,SK-MEL-2 melanoma,> 100 µM
same,TGI,UACC-62 melanoma,> 100 µM
same,TGI,HOP-62 NSCLC,> 100 µM
same,TGI,OVCAR-5 ovarian,> 100 µM
same,TGI,COLO 205 colon,58.2 µM
same,TGI,CCRF-CEM leukemia,> 100 µM
same,TGI,PC-3 prostate,> 100 µM
same,TGI,HS 578T breast,> 100 µM
same,TGI,MCF7 breast,90 µM
same,TGI,SF-295 CNS,> 100 µM
same,TGI,HCC-2998 colon,> 100 µM
same,TGI,A498 renal,> 100 µM
same,TGI,HCT-116 colon,> 100 µM
same,TGI,UO-31 renal,> 100 µM
same,TGI,K-562 leukemia,> 100 µM
COc1ccc2nc3cc(Cl)ccc3c(NCCNC(=O)Cn3c(=O)n(C)c(=O)c4c3nc3c(c(=O)n(C)c(=O)n3C)[n+]4[O-])c2c1,TGI,HT29 colon,> 65.1 µM
same,TGI,UACC-257 melanoma,> 55.9 µM
same,TGI,MDA-N,> 100 µM
same,TGI,A549 NSCLC,> 100 µM
same,TGI,IGROV1 ovarian,61.6 µM
same,TGI,NCI-H460 lung,> 100 µM
same,TGI,MOLT-4 leukemia,> 90.8 µM
same,TGI,LOX IMVI melanoma,> 100 µM
same,TGI,TK-10 renal,> 56.1 µM
same,TGI,786-0 renal,> 100 µM
same,TGI,ACHN renal,> 100 µM
same,TGI,BT-549 breast,49.1 µM
same,TGI,NCI/ADR-RES ovarian,> 95.8 µM
same,TGI,NCI-H226 lung,> 80.1 µM
same,TGI,KM12 colon,> 100 µM
same,TGI,HCT-15 colon,> 100 µM
same,TGI,SF-268 CNS,60.8 µM
same,TGI,OVCAR-3 ovarian,> 100 µM
same,TGI,HOP-92 NSCLC,> 74.7 µM
same,TGI,CAKI-1 renal,> 100 µM
same,TGI,SK-MEL-28 melanoma,> 31.6 µM
same,TGI,T-47D breast,> 100 µM
same,TGI,SR leukemia,63.8 µM
same,TGI,SK-OV-3 ovarian,> 100 µM
same,TGI,SN12C renal,> 100 µM
same,TGI,M14 melanoma,> 100 µM
same,TGI,SK-MEL-5 melanoma,> 100 µM
same,TGI,NCI-H23 lung,56 µM
same,TGI,MALME-3M melanoma,> 100 µM
same,TGI,SW-620 colon,> 71.7 µM
same,TGI,SNB-19 CNS,> 77.9 µM
same,TGI,EKVX NSCLC,> 100 µM
same,TGI,MDA-MB-231 breast,> 100 µM
same,TGI,RXF 393 renal,> 100 µM
same,TGI,OVCAR-8 ovarian,57 µM
same,TGI,SNB-75 CNS,92.2 µM
same,TGI,RPMI-8226 leukemia,> 100 µM
same,TGI,MDA-MB-435,> 69.5 µM
same,TGI,HL-60(TB) leukemia,> 100 µM
same,TGI,DU-145 prostate,> 100 µM
same,TGI,OVCAR-4 ovarian,> 100 µM
same,TGI,NCI-H522 lung,> 74.6 µM
same,TGI,U251 CNS,58.9 µM
same,TGI,SK-MEL-2 melanoma,> 100 µM
same,TGI,UACC-62 melanoma,> 52.9 µM
same,TGI,HOP-62 NSCLC,50.8 µM
same,TGI,OVCAR-5 ovarian,> 100 µM
same,TGI,COLO 205 colon,> 100 µM
same,TGI,CCRF-CEM leukemia,> 100 µM
same,TGI,PC-3 prostate,> 100 µM
same,TGI,HS 578T breast,71.2 µM
same,TGI,MCF7 breast,> 100 µM
same,TGI,SF-295 CNS,> 100 µM
same,TGI,HCC-2998 colon,> 100 µM
same,TGI,A498 renal,98.8 µM
same,TGI,HCT-116 colon,> 100 µM
same,TGI,SF-539 CNS,> 65 µM
same,TGI,UO-31 renal,> 100 µM
same,TGI,K-562 leukemia,> 100 µM

# Source: PubChem BioAssay (NCI)
